Laboratory results from patent publication US7732457B2, “Amino-pyridines as inhibitors of β-secretase” (Wyeth LLC, priority 2005, dated 2010).
Structures can show the parent of a compound that is named as a salt.

Assays:
human BACE1 = human BACE1 (Homo sapiens, UniProt P56817); test: BACE-1 fluorescent kinetic assay (cleavage of peptide substrate WABC-6); assay type: biochemical; details: 10 nM enzyme, 25 μM substrate WABC-6, Na-Acetate pH 4.5, room temperature
Protocol: Evaluation of BACE-1 Binding Affinity of Test Compounds
Fluorescent Kinetic Assay
Dilution and mixing steps: total reaction volume: 100 μL
100 μM substrate dilution in 1×PBS was prepared, and
Fluorescence Readings: Readings at λex 320 nm and λem 420 nm are taken every 40 sec for 30 min at room temperature and the linear slope for substrate cleavage rate (vi) determined.

Chain of human BACE1 (P56817 46-501): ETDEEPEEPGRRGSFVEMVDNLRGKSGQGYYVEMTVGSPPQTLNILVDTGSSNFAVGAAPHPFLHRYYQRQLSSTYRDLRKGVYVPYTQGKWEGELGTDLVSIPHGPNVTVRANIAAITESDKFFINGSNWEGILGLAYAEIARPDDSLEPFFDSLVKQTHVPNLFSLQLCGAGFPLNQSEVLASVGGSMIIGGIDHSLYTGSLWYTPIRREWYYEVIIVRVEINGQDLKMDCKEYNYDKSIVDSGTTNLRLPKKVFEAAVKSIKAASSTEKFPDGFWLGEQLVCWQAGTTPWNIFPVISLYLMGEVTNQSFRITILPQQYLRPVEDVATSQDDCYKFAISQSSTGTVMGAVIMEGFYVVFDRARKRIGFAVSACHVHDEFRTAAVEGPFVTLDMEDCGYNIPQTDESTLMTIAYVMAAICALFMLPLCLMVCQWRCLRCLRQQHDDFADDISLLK

| melting point | BACE 1 IC50 μM (human BACE1) | IC50 (human BACE1) | Structure (SMILES) |
| --- | --- | --- | --- |
| 126 to 130 °C |  |  | Nc1cccc(Cn2c(-c3ccc(Oc4nccs4)cc3)ccc2-c2ccccc2Cl)n1 (as salt: hydrochloride) [Example 32, 6-{2-(2-Chloro-phenyl)-5-[4-(thiazol-2-yloxy)-phenyl]-pyrrol-1-ylmethyl}-pyridin-2-ylamine hydrochloride] |
| 135 to 140 °C |  |  | Nc1cccc(Cn2c(-c3ccc(Oc4ncccn4)cc3)ccc2-c2ccccc2Cl)n1 (as salt: hydrochloride) [Example 31, 6-{2-(2-Chloro-phenyl)-5-[4-(Pyrimidin-2-yloxy)-phenyl]-pyrrol-1-ylmethyl}-pyridin-2-ylamine hydrochloride] |
| 108 to 118 °C | D (D = >5.0 μM-0.10 = μM) |  | Cc1cccc(C(=O)Nc2ccc(-c3ccc(-c4ccccc4Cl)n3Cc3cccc(N)n3)cc2)c1 [Example 1, N-{4-[1-(6-Amino-pyridin-2-ylmethyl)-5-(2-chloro-phenyl)-1H-pyrrol-2-yl]-phenyl}-3-methyl-benzamide] |
|  | D (D = >5.0 μM-0.10 = μM) |  | CCCCCOc1ccc(-c2ccc(-c3ccccc3Cl)n2Cc2ccc(OCCCO)c(N)n2)cc1 [Example 43A, 3-{(2-Amino-6-[2-(2-chlorophenyl)-5-(4-pentyloxyphenyl)pyrrol-1-ylmethyl]pyridin-3-yloxy}propan-1-ol hydrochloride] |
| 170 to 172 °C | D (D = >5.0 μM-0.10 = μM) |  | Nc1cccc(Cn2c(-c3ccc(O)cc3)ccc2-c2ccccc2Cl)n1 [Example 6, 4-[1-(6-Amino-pyridin-2-ylmethyl)-5-(2-chloro-phenyl)-1H-pyrrol-2-yl]-phenol] |
|  | D (D = >5.0 μM-0.10 = μM) |  | CCCCCOc1ccc(-c2ccc(-c3ccccc3Cl)n2Cc2ccc(N)c(N)n2)cc1 [Example 42B, 6-[2-(2-Chlorophenyl)-5-(4-pentyloxyphenyl)pyrrol-1-ylmethyl]pyridine-2,3-diamine hydrochloride] |
| 86 to 88 °C |  |  | CCCCCOc1ccc(-c2ccc(-c3ccccc3Cl)n2Cc2ccc(OC)c(NCCCO)n2)cc1 (as salt: hydrochloride) [Example 41, 3-{6-[2-(2-Chloro-phenyl)-5-(4-pentyloxy-phenyl)-pyrrol-1-ylmethyl]-3-methoxy-pyridin-2-ylamino}-propan-1-ol hydrochloride] |
| 154 to 158 °C |  | 1.1 to 5 µM | Nc1cccc(Cn2c(-c3ccc(Br)cc3)ccc2-c2ccccc2Cl)n1 [Example 4, 6-[2-(4-bromo-phenyl)-5-(2-chloro-phenyl)-pyrrol-1-ylmethyl]-pyridin-2-ylamine] |
| 172 to 173 °C | D (D = >5.0 μM-0.10 = μM) |  | CCOC(=O)c1ccc(-c2ccc(-c3ccc(F)cc3)n2Cc2cccc(N)n2)cc1 [Example 57, Ethyl 4-[1-[(6-aminopyridin-2-yl)methyl]-5-(4-fluorophenyl)-1H-pyrrol-2-yl]benzoate] |
|  |  | 0.11 to 1 µM | Nc1cccc(Cn2c(-c3ccc(Oc4nccs4)cc3)ccc2-c2ccccc2Cl)n1 [Example 32, 6-{2-(2-Chloro-phenyl)-5-[4-(thiazol-2-yloxy)-phenyl]-pyrrol-1-ylmethyl}-pyridin-2-ylamine hydrochloride] |
| 116 to 122 °C | D (D = >5.0 μM-0.10 = μM) |  | Nc1cccc(Cn2c(-c3ccc(NC(=O)c4cccc(Br)c4)cc3)ccc2-c2ccccc2Cl)n1 [Example 2, N-{4-[1-(6-Amino-pyridin-2-ylmethyl)-5-(2-chloro-phenyl)-1H-pyrrol-2-yl]-phenyl}-3-bromo-benzamide] |
| 89 to 92 °C |  | 0.11 to 1 µM | CCCOc1ccc(-c2ccc(-c3ccccc3Cl)n2Cc2ccc(OCCO)c(N)n2)cc1 [Example 54, 2-[(2-amino-6-{[2-(2-chlorophenyl)-5-(4-propoxyphenyl)-1H-pyrrol-1-yl]methyl}pyridine-3-yl)oxy]ethanol] |
|  |  | 1.1 to 5 µM | CCCCCNc1ccc(-c2ccc(-c3ccccc3Cl)n2Cc2cccc(N)n2)cc1 [Example 53, 6-[2-(2-Chloro-phenyl)-5-(4-pentylamino-phenyl)-pyrrol-1-ylmethyl]-pyridin-2-ylamine hydrochloride] |
| 80 to 82 °C |  | 0.11 to 1 µM | Nc1nc(Cn2c(-c3ccc(Br)cc3)ccc2-c2ccccc2Cl)ccc1OCCO [Example 47, 2-{2-Amino-6-[2-(4-bromo-phenyl)-5-(2-chloro-phenyl)-pyrrol-1-ylmethyl]-pyridin-3-yloxy}-ethanol] |
|  | D (D = >5.0 μM-0.10 = μM) |  | CCCCCOc1ccc(-c2ccc(-c3ccccc3Cl)n2Cc2ccc(OC)c(N)n2)cc1 [Example 40, 6-[2-(2-Chlorophenyl)-5-(4-pentyloxyphenyl)-pyrrol-1-ylmethyl]-3-methoxypyridin-2-ylamine hydrochloride] |
| 126 to 130 °C |  | 0.11 to 1 µM | Cl.N#CCCCCOc1ccc(-c2ccc(-c3ccccc3Cl)n2Cc2cccc(N)n2)cc1 [Example 19, 5-{4-[1-(6-Amino-pyridin-2-ylmethyl)-5-(2-chloro-phenyl)-1H-pyrrol-2-yl]-phenoxy}-pentanenitrile hydrochloride] |

| melting point | BACE 1 IC50 μM (human BACE1) | IC50 (human BACE1) | Structure (SMILES) |
| --- | --- | --- | --- |
| 98 to 99 °C | D (D = >5.0 μM-0.10 = μM) |  | Nc1cccc(Cn2c(-c3ccccc3)ccc2-c2ccc(C(=O)NCC3CCCO3)cc2)n1 (centres unmarked) [Example 66, 4-{1-[(6-aminopyridin-2-yl)methyl]-5-phenyl-1H-pyrrol-2-yl}-N-(tetrahydrofuran-2-ylmethyl)benzamide] |
| 130 to 138 °C |  |  | Nc1cccc(Cn2c(-c3ccc(Oc4ccc(Br)cc4)cc3)ccc2-c2ccccc2Cl)n1 (as salt: hydrochloride) [Example 38, 6-[2-[4-(4-Bromophenoxy)phenyl]-5-(2-chlorophenyl)pyrrol-1-ylmethyl]pyridin-2-ylamine hydrochloride] |
|  | D (D = >5.0 μM-0.10 = μM) |  | Nc1cccc(Cn2c(-c3ccc(NC(=O)c4ccccc4)cc3)ccc2-c2ccccc2Cl)n1 [Example 3, N-{4-[1-(6-Amino-pyridin-2-ylmethyl)-5-(2-chloro-phenyl)-1H-pyrrol-2-yl]-phenyl}-benzamide] |
| 145 to 147 °C |  |  | CCCCCNc1ccc(-c2ccc(-c3ccccc3Cl)n2Cc2cccc(N)n2)cc1 (as salt: hydrochloride) [Example 53, 6-[2-(2-Chloro-phenyl)-5-(4-pentylamino-phenyl)-pyrrol-1-ylmethyl]-pyridin-2-ylamine hydrochloride] |
|  | D (D = >5.0 μM-0.10 = μM) |  | Nc1cccc(Cn2c(-c3ccc(-c4ccccc4)cc3)ccc2-c2ccccc2Cl)n1 [Example 27, 6-[2-Biphenyl-4-yl-5-(2-chlorophenyl)pyrrol-1-ylmethyl]pyridin-2-ylamine] |
|  | D (D = >5.0 μM-0.10 = μM) |  | Nc1cccc(Cn2c(-c3ccc(Oc4ccc(Br)cc4)cc3)ccc2-c2ccccc2Cl)n1 [Example 38, 6-[2-[4-(4-Bromophenoxy)phenyl]-5-(2-chlorophenyl)pyrrol-1-ylmethyl]pyridin-2-ylamine hydrochloride] |
| 184 to 185 °C |  | 1.1 to 5 µM | CCNC(=O)c1ccc(-c2ccc(-c3ccc(F)cc3)n2Cc2cccc(N)n2)cc1 [Example 61, 4-[1-[(6-aminopyridin-2-yl)methyl]-5-(4-fluorophenyl)-1H-pyrrol-2-yl]-N-ethylbenzamide] |
|  |  | 0.11 to 1 µM | CC(=O)c1ccc(Oc2ccc(-c3ccc(-c4ccccc4Cl)n3Cc3cccc(N)n3)cc2)cc1 [Example 37, 1-(4-{4-[1-(6-Aminopyridin-2-ylmethyl)-5-(2-chlorophenyl)-1H-pyrrol-2-yl]phenoxy}-phenyl)ethanone hydrochloride] |
|  | D (D = >5.0 μM-0.10 = μM) |  | CCCCCOc1ccc(-c2ccc(-c3ccccc3Cl)n2Cc2ccc(OCCCC#N)c(N)n2)cc1 [Example 43B, 4-{2-Amino-6-[2-(2-chlorophenyl)-5-(4-pentyloxyphenyl)pyrrol-1-ylmethyl]-pyridin-3-yloxy}butyronitrile hydrochloride] |
| 161 to 162 °C | D (D = >5.0 μM-0.10 = μM) |  | CCOC(=O)c1ccc(-c2ccc(-c3ccccc3)n2Cc2cccc(N)n2)cc1 [Example 58, Ethyl 4-{1-[(6-aminopyridin-2-yl)methyl]-5-phenyl-1H-pyrrol-2-yl}benzoate] |
|  |  | 0.11 to 1 µM | Nc1cccc(Cn2c(-c3ccc(-c4cncnc4)cc3)ccc2-c2ccccc2Cl)n1 [Example 29, 6-[2-(2-Chloro-phenyl)-5-(4-pyrimidin-5-yl-phenyl)-pyrrol-1-ylmethyl]-pyridin-2-ylamine] |
| 98 to 106 °C |  | 1.1 to 5 µM | Cl.N#CCCCCCOc1ccc(-c2ccc(-c3ccccc3Cl)n2Cc2cccc(N)n2)cc1 [Example 20, 6-{4-[1-(6-Amino-pyridin-2-ylmethyl)-5-(2-chloro-phenyl)-1H-pyrrol-2-yl]-phenoxy}-hexanenitrile hydrochloride] |
|  | D (D = >5.0 μM-0.10 = μM) |  | CCCCCOc1ccc(-c2ccc(-c3ccccc3Cl)n2Cc2ccc(OC)c(NCCCO)n2)cc1 [Example 41, 3-{6-[2-(2-Chloro-phenyl)-5-(4-pentyloxy-phenyl)-pyrrol-1-ylmethyl]-3-methoxy-pyridin-2-ylamino}-propan-1-ol hydrochloride] |
|  |  | 1.1 to 5 µM | Nc1cccc(Cn2c(-c3ccc(Oc4ncccn4)cc3)ccc2-c2ccccc2Cl)n1 [Example 31, 6-{2-(2-Chloro-phenyl)-5-[4-(Pyrimidin-2-yloxy)-phenyl]-pyrrol-1-ylmethyl}-pyridin-2-ylamine hydrochloride] |
|  | D (D = >5.0 μM-0.10 = μM) |  | CCCCCOc1ccc(-c2ccc(-c3ccccc3Cl)n2Cc2ccc(O)c(N)n2)cc1 [Example 42A, 2-Amino-6-[2-(2-chlorophenyl)-5-(4-pentyloxyphenyl)pyrrol-1-ylmethyl]pyridin-3-ol hydrochloride] |
|  | D (D = >5.0 μM-0.10 = μM) |  | CCCCCCOc1ccc(-c2ccc(-c3ccccc3Cl)n2Cc2cccc(N)n2)cc1.Cl [Example 17, 6-[2-(2-Chloro-phenyl)-5-(4-hexyloxy-phenyl)-pyrrol-1-ylmethyl]-pyridin-2-ylamine hydrochloride] |
